As usually defined, the Ki is the dissociation constant of the complex between target and ligand, obtained from inhibition or displacement.

This passage reports Ki results from US7304061B2, “Heterocyclic inhibitors of ERK2 and uses thereof” (Vertex Pharmaceuticals Incorporated, priority 2002, dated 2007).

The assay concerns the target ERK2 (Homo sapiens, UniProt P28482). Briefly: ERK2 inhibition assay (spectrophotometric coupled-enzyme assay). To be noted: activated ERK2 10 nM, 65 μM ATP, 200 μM erktide peptide, 30° C., pH 7.5. Type of assay: biochemical. As for the experimental part: Compounds were assayed for the inhibition of ERK2 by a spectrophotometric coupled-enzyme assay (Fox et al (1998) Protein Sci 7, 2249). In this assay, a fixed concentration of activated ERK2 (10 nM) was incubated with various concentrations of the compound in DMSO (2.5%) for 10 min. at 30° C. in 0.1 M HEPES buffer, pH 7.5, containing 10 mM MgCl2, 2.5 mM phosphoenolpyruvate, 200 μM NADH, 150 μg/mL pyruvate kinase, 50 μg/mL lactate dehydrogenase, and 200 μM erktide peptide. The reaction was initiated by the addition of 65 μM ATP. The rate of decrease of absorbance at 340 nm was monitored. The Ki and IC50 were evaluated from the rate data as a function of inhibitor concentration.

Each structure is given as a SMILES string.

ERK2, sequence (P28482 whole entry, species assumed): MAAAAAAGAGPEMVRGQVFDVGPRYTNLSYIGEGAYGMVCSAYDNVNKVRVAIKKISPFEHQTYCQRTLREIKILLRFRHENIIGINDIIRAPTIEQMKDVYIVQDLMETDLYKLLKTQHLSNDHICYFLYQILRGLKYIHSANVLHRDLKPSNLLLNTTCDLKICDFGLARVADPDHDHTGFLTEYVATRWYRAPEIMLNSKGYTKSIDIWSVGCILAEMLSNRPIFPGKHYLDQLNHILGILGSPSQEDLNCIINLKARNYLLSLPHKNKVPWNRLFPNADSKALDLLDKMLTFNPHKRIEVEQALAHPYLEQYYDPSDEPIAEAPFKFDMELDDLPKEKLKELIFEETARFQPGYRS

With `CCOc1ncc(C)c(-c2c[nH]c(C(=O)N[C@H](CO)c3ccccc3)c2)n1` [Compound I-22, 4-(5-methyl-2-ethoxy-pyrimidin-4-yl)-1H-pyrrole-2 carboxylic acid (2-hydroxy-1-(S)-phenyl-ethyl)-amide], the Ki was under 100 nM.
In the case of `Cc1cnc(-c2ccccc2)nc1-c1c[nH]c(C(=O)N[C@H](CO)c2ccccc2)c1` [Compound I-24, 4-(5-Methyl-2-phenyl-pyrimidin-4-yl)-1H-pyrrole-2 carboxylic acid (2-hydroxy-1-(S)-phenyl-ethyl)-amide] it was under 100 nM.
